The results in this text go back to patent EP0043274A2, “Antithrombotic treatment” (priority 1980, dated 1982).

“And” between values parts separate entries of the source, which are not always exact repeats. Equal values may be shown once.

Data set [1] has as its system human plasma. The data set is described as follows: Blood coagulation evaluation by standard procedures (Biggs), overall result. Conditions: 5 mg/ml. The data set is classed as biochemical. Here is the method:
(§1) The effect of U.S.P. grade sodium bisulfite on blood coagulation factors is evaluated by standard procedures (Biggs) and the results are shown in Table III below.
When this procedure is repeated using human plasma,
References for PT, PTT, and assays in vitro of all the coagulation factors can be found in a standard textbook, entitled "Human Blod Coagulation, Haemostatis and Thrombosis", edited by Rosemary Biggs, published by Blackwell Scientific Publications, Oxford, England (2nd edition), pages 670-705, 1976.

Another data set concerns the target T1, FACTOR V (Homo sapiens, UniProt P12259).
T1 construct: from tissue; host or cells: human plasma
The data set is described as follows: Coagulation factor assay (Biggs): Factor V. The format is biochemical. Conditions: U.S.P. grade, control 75. Here is the method: as §1
References for PT, PTT, and assays of all the coagulation factors can be found in a standard textbook, entitled "Human Blood Coagulation, Haemostasis and Thrombosis", edited by Rosemary Biggs, published by Blackwell Scientific Publications, Oxford, England (2nd edition), pages 670-705, 1976.

Data set [2] concerns human plasma. In words: Thrombin time (TT) in vitro, standard method. The format is biochemical. The note with it: U.S.P. grade, control 12.00. Here is the method:
as §1

Data set [3] concerns human platelet rich plasma. In words: Platelet aggregation in platelet rich plasma, platelet aggregometer (technique of Born). The format is cell-based. Conditions: 1 millimole (mM); induced by optimal concentrations of ADP, collogen, epinephrine, and arachidonic acid. The source says: A present preference for purposes of evaluating an - antithrombotic effect is to withdraw samples of blood from a patient undergoing treatment and to measure platelet aggregation. One method is described in the paper by Born in Nature 194, pp. 927-929 (1962), which may be used for this purpose if desired.
That sodium bisulfite is an antiplatelet aggregatory agent is shown by using a platelet aggregometer based on the technique of Born (above cited).
Platelet rich plasma from rabbit and men was prepared by the centrugation technique referenced in Example 13. Using ADP (adosine diphosphate) as a stimulus rapid aggregation of platelets occurred. […] This procedure is described in the article by Born in Nature, Vol. 194, pgs. 927-929 (1962).
Platelet rich plasma from rabbits and men was prepared by the centrugation technique referenced in Example 13. Using ADP (adosine diphosphate) arachidonic acid as a stimulus, rapid aggregation of platelets occurred. […] This procedure is described in the article by Born, Nature, Vol. 194, pgs. 927-929 (1962).

Another data set has as its system RATS. The data set is described as follows: Rats fed bait containing 0.5% sodium bisulfite. The format is in vivo. The source says: Five rats, each in a separate cage, were given a bait containing 0.5 percent by weight of sodium bisulfite. The bait consisted of cracked grains (wheat, corn, millet, and corn meal). The amounts of bait eaten are summarized for an eleven day period.

Data set [4] can be described thus: Human use, oral drops with meals (case histories). The format is in vivo. The source says:
To evaluate the effect of sodium bisulfite in human use (this agent being known to be safe for human consumption), certain patients received this agent. The case history and observations are summarized individually below.
In each case, each patient is provided with such a bottle of Solution D, unless otherwise noted, and is instructed to dose himself (or herself, as the case may be) from the bottle so provided at the rate of seven drops to be taken orally with each of his (her) three daily meals. When the contents of one such bottle is thus so gradually consumed by an individual patient, another is provided to him (her).

The subject of a further data set is platelet rich plasma. The data set is described as follows: Platelet aggregation in platelet rich plasma from injected rabbit (ex vivo). The note with it: injected with about 72 mg/kg of body weight; blood sample after 5 hours. Here is the method: A rabbit is injected with about +72 mg/kg of body weight of triethyl amine bisulfite. After a period of 5 hours, a blood sample was withdrawn and centrifuged at 1000 r.p.m. (220 g) for 10 minutes to give a platelet rich plasma. […] It is concluded that triethyl amine bisulfite is an agent which inhibits thrombotic condition formation in vivo.
A rabbit is injected with about 72 mg/kg of body weight of sodium formaldehyde bisulfite. After a period of 5 hours, a blood sample was withdrawn and centrifuged at 1000 r.p.m. (220 g) for 10 minuts to give a platelet rich plasma. […] It is concluded that sodium formaldehyde bisulfite is an agent which inhibits thrombus formation in vivo.

T1 sequence (P12259 29-2224): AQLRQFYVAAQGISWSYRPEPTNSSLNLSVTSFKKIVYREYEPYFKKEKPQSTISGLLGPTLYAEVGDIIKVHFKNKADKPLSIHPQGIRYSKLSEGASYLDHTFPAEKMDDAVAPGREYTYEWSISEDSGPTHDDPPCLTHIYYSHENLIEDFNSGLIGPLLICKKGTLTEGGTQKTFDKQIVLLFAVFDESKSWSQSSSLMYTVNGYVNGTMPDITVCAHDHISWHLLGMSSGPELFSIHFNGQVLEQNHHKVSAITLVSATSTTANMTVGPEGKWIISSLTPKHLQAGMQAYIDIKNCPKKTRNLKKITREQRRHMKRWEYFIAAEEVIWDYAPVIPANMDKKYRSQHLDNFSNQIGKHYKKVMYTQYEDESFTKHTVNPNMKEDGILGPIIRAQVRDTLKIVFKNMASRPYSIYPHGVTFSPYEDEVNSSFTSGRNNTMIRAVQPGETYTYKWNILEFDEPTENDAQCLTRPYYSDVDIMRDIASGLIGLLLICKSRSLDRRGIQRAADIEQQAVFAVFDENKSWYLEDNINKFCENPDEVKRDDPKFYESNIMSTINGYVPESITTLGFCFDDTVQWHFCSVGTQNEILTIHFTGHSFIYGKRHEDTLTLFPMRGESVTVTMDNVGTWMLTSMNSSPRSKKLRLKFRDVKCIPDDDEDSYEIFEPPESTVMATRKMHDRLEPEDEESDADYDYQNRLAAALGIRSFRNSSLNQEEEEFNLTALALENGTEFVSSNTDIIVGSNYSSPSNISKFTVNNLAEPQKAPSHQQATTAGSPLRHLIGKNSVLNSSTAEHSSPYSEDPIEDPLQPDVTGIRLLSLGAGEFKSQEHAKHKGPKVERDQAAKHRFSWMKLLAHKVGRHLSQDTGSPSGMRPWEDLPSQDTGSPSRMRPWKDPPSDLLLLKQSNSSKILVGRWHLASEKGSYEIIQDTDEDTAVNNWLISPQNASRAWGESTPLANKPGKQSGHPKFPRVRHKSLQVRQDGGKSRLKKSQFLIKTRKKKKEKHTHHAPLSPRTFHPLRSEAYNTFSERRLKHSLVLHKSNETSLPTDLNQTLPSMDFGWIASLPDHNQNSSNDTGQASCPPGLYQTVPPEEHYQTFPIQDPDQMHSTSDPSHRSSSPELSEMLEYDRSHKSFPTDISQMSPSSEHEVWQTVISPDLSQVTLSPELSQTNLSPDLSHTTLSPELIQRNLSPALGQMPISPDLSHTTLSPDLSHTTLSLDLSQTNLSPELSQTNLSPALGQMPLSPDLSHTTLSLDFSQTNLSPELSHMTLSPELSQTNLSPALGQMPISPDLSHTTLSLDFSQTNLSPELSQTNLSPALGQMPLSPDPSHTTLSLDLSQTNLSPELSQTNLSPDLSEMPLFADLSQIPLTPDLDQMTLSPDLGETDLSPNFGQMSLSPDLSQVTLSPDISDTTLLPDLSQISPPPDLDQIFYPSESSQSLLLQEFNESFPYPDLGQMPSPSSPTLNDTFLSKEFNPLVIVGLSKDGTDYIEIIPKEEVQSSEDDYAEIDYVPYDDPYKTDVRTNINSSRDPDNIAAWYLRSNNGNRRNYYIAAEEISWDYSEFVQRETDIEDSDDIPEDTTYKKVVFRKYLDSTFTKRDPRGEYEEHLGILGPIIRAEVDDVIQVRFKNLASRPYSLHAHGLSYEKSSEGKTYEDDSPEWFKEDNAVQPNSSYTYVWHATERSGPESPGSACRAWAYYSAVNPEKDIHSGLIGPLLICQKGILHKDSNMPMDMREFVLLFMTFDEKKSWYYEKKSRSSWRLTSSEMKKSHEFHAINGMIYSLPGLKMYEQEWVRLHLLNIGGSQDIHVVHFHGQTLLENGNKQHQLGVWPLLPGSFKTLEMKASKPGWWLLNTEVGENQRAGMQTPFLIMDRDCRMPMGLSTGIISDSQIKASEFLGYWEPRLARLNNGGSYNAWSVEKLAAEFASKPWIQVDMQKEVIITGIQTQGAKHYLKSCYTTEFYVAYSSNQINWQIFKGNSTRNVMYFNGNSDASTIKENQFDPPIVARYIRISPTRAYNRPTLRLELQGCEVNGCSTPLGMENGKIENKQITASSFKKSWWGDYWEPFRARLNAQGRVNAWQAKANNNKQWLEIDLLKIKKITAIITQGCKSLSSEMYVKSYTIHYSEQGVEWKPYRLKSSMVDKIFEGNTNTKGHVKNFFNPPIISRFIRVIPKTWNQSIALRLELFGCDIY

With Sodium bisulfite, the “coagulation of human plasma” value in the data set with human plasma [1] was “completely disrupted”. Moreover, the “FACTOR V (%)” value is recorded as 74% at FACTOR V (0.01 mg/ml); 72% at FACTOR V (0.05 mg/ml); 80% at FACTOR V (0.1 mg/ml); 70% on FACTOR V (0.5 mg/ml); 60% on FACTOR V (1.0 mg/ml); 54% on FACTOR V (5.0 mg/ml). Besides, the “TT” value in the data set on human plasma [2] (0.01 mg/ml) was found to be 12.07 s; with human plasma [2] (0.05 mg/ml) it was 12.10 s; with human plasma [2] (0.1 mg/ml), 12.00 s; with human plasma [2] (0.5 mg/ml), 13.97 s; in the data set with human plasma [2] (1.0 mg/ml) it was 16.08 s; in the data set with human plasma [2] (5.0 mg/ml) it was 34.3 s. Moreover, the platelet aggregation entry in data set [3] was “abolishes platelet aggregation”. Also, the mortality result in the data set on RATS (2 days, rats 1 and 4) is “DIED”. Further, the “FIRST DAY BLOOD FACTOR PT” value in the data set with RATS (rat 5) is on record as 27. In addition, the “FIRST DAY BLOOD FACTOR PT, increase” value with RATS (rats 1-3) is 26% increase and 24% increase and 28% increase. Further, the “Case IV: blood cholesterol value” in data set [4] (after about 5 years of medication, before between 200 and 220 mg %) was “about 144 mg %”. Also, the “Case IV: hypertension, arthritis, arrithmia, hemorrhoids, dispepsia, cyanotic fingers and toes, malaise, lassitude” value in data set [4] (man, Solutions A, B, C, or D orally, up to 20 drops per meal, within 2-3 months) is on record as “all of the above identified conditions improved (except for diabetes)”.

Consider `CCN(CC)CC.O=S(O)O` [TRIETHYL AMINE BISULFITE, triethyl amine bisulfite], for which the “aggregation of platelets in comparison with an untreated rabbit” value with platelet rich plasma is recorded as “markedly decreased”.
